“And” between values parts separate entries of the source, which are not always exact repeats. Identical values can stand only once.
Test system: PDC tumor spheroids with HUVEC/MSC, viability
Experiment: Anticancer human tumor 439559-082-T-J2-PDC patient-derived colon adenocarcinoma cell line growth inhibition [TAK]
Conditions: for viability, T/C: stronger effect = lower value
In short: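 Tumor cells were grown as spheroids with HUVEC and hMSC (60:25:15) and treated with targeted agents combined with TAK-243 or ipatasertib. Drugs were tested in half-log steps down from near the clinical Cmax, or from 10 microM where Cmax was unknown.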

[1] = curve of first compound, second compound 0.3 µM
[2] = curve of first compound, second compound 0.949 µM
[3] = curve of first compound, second compound 3 µM
[4] = curve of first compound, second compound 9.49 µM
[5] = curve of first compound, second compound 30 µM
[6] = second compound 0.3 µM, first compound 0.00316 µM
[7] = second compound 0.3 µM, first compound 0.01 µM
[8] = second compound 0.949 µM, first compound 0.00316 µM
[9] = second compound 0.949 µM, first compound 0.01 µM
[10] = second compound 3 µM, first compound 0.00316 µM
[11] = second compound 3 µM, first compound 0.01 µM
[12] = second compound 9.49 µM, first compound 0.00316 µM
[13] = second compound 9.49 µM, first compound 0.01 µM
[14] = second compound 30 µM, first compound 0.00316 µM
[15] = second compound 30 µM, first compound 0.01 µM
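Further: spheroids exposed to drugs for seven days before readout.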

CC(=O)Nc1cccc(-n2c(=O)n(C3CC3)c(=O)c3c(Nc4ccc(I)cc4F)n(C)c(=O)c(C)c32)c1 + CC(C)NCC(C(=O)N1CCN(c2ncnc3c2C(C)CC3O)CC1)c1ccc(Cl)cc1
IC50 [1]: > 30 nM
IC50 [2]: > 30 nM
IC50 [3]: > 30 nM
IC50 [4]: > 30 nM
IC50 [5]: > 30 nM
viability, T/C (second compound 0.3 µM, first compound 94.9 pM): 105%
viability, T/C (second compound 0.3 µM, first compound 0.0003 µM): 97.6%
viability, T/C (second compound 0.3 µM, first compound 0.000949 µM): 85.8%
viability, T/C (second compound 0.3 µM, first compound 0.003 µM): 74.3%
viability, T/C (second compound 0.3 µM, first compound 0.00949 µM): 70.5%
viability, T/C (second compound 0.3 µM, first compound 0.03 µM): 62.1%
viability, T/C (second compound 0.949 µM, first compound 94.9 pM): 90.4%
viability, T/C (second compound 0.949 µM, first compound 0.0003 µM): 89.7%
viability, T/C (second compound 0.949 µM, first compound 0.000949 µM): 93.9%
viability, T/C (second compound 0.949 µM, first compound 0.003 µM): 75.1%
viability, T/C (second compound 0.949 µM, first compound 0.00949 µM): 66.6%
viability, T/C (second compound 0.949 µM, first compound 0.03 µM): 62.2%
viability, T/C (second compound 3 µM, first compound 94.9 pM): 102%
viability, T/C (second compound 3 µM, first compound 0.0003 µM): 98.8%
viability, T/C (second compound 3 µM, first compound 0.000949 µM): 76.8%
viability, T/C (second compound 3 µM, first compound 0.003 µM): 77.2%
viability, T/C (second compound 3 µM, first compound 0.00949 µM): 72.9%
viability, T/C (second compound 3 µM, first compound 0.03 µM): 61%
viability, T/C (second compound 9.49 µM, first compound 94.9 pM): 88.7%
viability, T/C (second compound 9.49 µM, first compound 0.0003 µM): 92.9%
viability, T/C (second compound 9.49 µM, first compound 0.000949 µM): 84.4%
viability, T/C (second compound 9.49 µM, first compound 0.003 µM): 80.5%
viability, T/C (second compound 9.49 µM, first compound 0.00949 µM): 66.9%
viability, T/C (second compound 9.49 µM, first compound 0.03 µM): 55.1%
viability, T/C (second compound 30 µM, first compound 94.9 pM): 89%
viability, T/C (second compound 30 µM, first compound 0.0003 µM): 91.8%
viability, T/C (second compound 30 µM, first compound 0.000949 µM): 81.7%
viability, T/C (second compound 30 µM, first compound 0.003 µM): 73.5%
viability, T/C (second compound 30 µM, first compound 0.00949 µM): 69.2%
viability, T/C (second compound 30 µM, first compound 0.03 µM): 54.8%

Cc1nc(NC(=O)N2CCCC2C(N)=O)sc1-c1ccnc(C(C)(C)C(F)(F)F)c1 (configuration not stated)
viability, T/C (compound 0.0316 µM): 108% and 109%
viability, T/C (compound 0.1 µM): 105% and 106%
viability, T/C (compound 0.316 µM): 88.8% and 87%
viability, T/C (compound 1 µM): 90.8% and 87.5%
viability, T/C (compound 3.16 µM): 90% and 80.8%
viability, T/C (compound 10 µM): 82.5% and 78.5%
IC50 (curve of compound): > 10000 nM

CC(C)CC(NC(=O)C(Cc1ccccc1)NC(=O)c1cnccn1)B(O)O (configuration not stated) + CC(C)NCC(C(=O)N1CCN(c2ncnc3c2C(C)CC3O)CC1)c1ccc(Cl)cc1
IC50 [1]: > 10 nM
IC50 [2]: > 10 nM
IC50 [3]: > 10 nM
IC50 [4]: > 10 nM
IC50 [5]: > 10 nM
viability, T/C (second compound 0.3 µM, first compound 31.6 pM): 112%
viability, T/C (second compound 0.3 µM, first compound 0.0001 µM): 94.2%
viability, T/C (second compound 0.3 µM, first compound 0.000316 µM): 96.6%
viability, T/C (second compound 0.3 µM, first compound 0.001 µM): 97.7%
viability, T/C [6]: 97.7%
viability, T/C [7]: 80.3%
viability, T/C (second compound 0.949 µM, first compound 31.6 pM): 105%
viability, T/C (second compound 0.949 µM, first compound 0.0001 µM): 107%
viability, T/C (second compound 0.949 µM, first compound 0.000316 µM): 92.5%
viability, T/C (second compound 0.949 µM, first compound 0.001 µM): 105%
viability, T/C [8]: 93.2%
viability, T/C [9]: 74%
viability, T/C (second compound 3 µM, first compound 31.6 pM): 102%
viability, T/C (second compound 3 µM, first compound 0.0001 µM): 98.2%
viability, T/C (second compound 3 µM, first compound 0.000316 µM): 93%
viability, T/C (second compound 3 µM, first compound 0.001 µM): 102%
viability, T/C [10]: 89.3%
viability, T/C [11]: 70%
viability, T/C (second compound 9.49 µM, first compound 31.6 pM): 93.3%
viability, T/C (second compound 9.49 µM, first compound 0.0001 µM): 97.6%
viability, T/C (second compound 9.49 µM, first compound 0.000316 µM): 92.9%
viability, T/C (second compound 9.49 µM, first compound 0.001 µM): 84.4%
viability, T/C [12]: 85.5%
viability, T/C [13]: 69.3%
viability, T/C (second compound 30 µM, first compound 31.6 pM): 85.8%
viability, T/C (second compound 30 µM, first compound 0.0001 µM): 98.5%
viability, T/C (second compound 30 µM, first compound 0.000316 µM): 87.3%
viability, T/C (second compound 30 µM, first compound 0.001 µM): 89.2%
viability, T/C [14]: 86%
viability, T/C [15]: 69.1%

COc1c(OCCCN2CCOCC2)ccc2c3n(c(=NC(=O)c4cnc(N)nc4)nc12)CCN3 + CC(C)NCC(C(=O)N1CCN(c2ncnc3c2C(C)CC3O)CC1)c1ccc(Cl)cc1
IC50 [1]: > 1000 nM
IC50 [2]: > 1000 nM
IC50 [3]: > 1000 nM
IC50 [4]: > 1000 nM
IC50 [5]: > 1000 nM
viability, T/C [6]: 98.6%
viability, T/C [7]: 89.5%
viability, T/C (second compound 0.3 µM, first compound 0.0316 µM): 71.3%
viability, T/C (second compound 0.3 µM, first compound 0.1 µM): 73.3%
viability, T/C (second compound 0.3 µM, first compound 0.316 µM): 61.8%
viability, T/C (second compound 0.3 µM, first compound 1 µM): 66.9%
viability, T/C [8]: 98.5%
viability, T/C [9]: 91.5%
viability, T/C (second compound 0.949 µM, first compound 0.0316 µM): 76.2%
viability, T/C (second compound 0.949 µM, first compound 0.1 µM): 72.4%
viability, T/C (second compound 0.949 µM, first compound 0.316 µM): 66.8%
viability, T/C (second compound 0.949 µM, first compound 1 µM): 65.8%
viability, T/C [10]: 85.1%
viability, T/C [11]: 88.4%
viability, T/C (second compound 3 µM, first compound 0.0316 µM): 75.5%
viability, T/C (second compound 3 µM, first compound 0.1 µM): 71.3%
viability, T/C (second compound 3 µM, first compound 0.316 µM): 66.8%
viability, T/C (second compound 3 µM, first compound 1 µM): 69.7%
viability, T/C [12]: 90.6%
viability, T/C [13]: 80.8%
viability, T/C (second compound 9.49 µM, first compound 0.0316 µM): 80.9%
viability, T/C (second compound 9.49 µM, first compound 0.1 µM): 73.7%
viability, T/C (second compound 9.49 µM, first compound 0.316 µM): 67.8%
viability, T/C (second compound 9.49 µM, first compound 1 µM): 70.9%
viability, T/C [14]: 83.9%
viability, T/C [15]: 79%
viability, T/C (second compound 30 µM, first compound 0.0316 µM): 72.6%
viability, T/C (second compound 30 µM, first compound 0.1 µM): 68.9%
viability, T/C (second compound 30 µM, first compound 0.316 µM): 64.5%
viability, T/C (second compound 30 µM, first compound 1 µM): 72.7%
